Test results reported in the RepoRT retention time repository.

Experiment: Agilent ZORBAX 300 SB-C18, 150 × 1 mm, 3.5 µm; A: water + 0.01% heptafluorobutyric acid; B: acetonitrile + 0.01% heptafluorobutyric acid; gradient (min/%B) 0/0 100/90
Settings: stereoisomer not certain

**Q.** For CCOC(=O)c1ccc(NC(=O)N2CCCC2)cc1, which LC retention time is on record?
**A.** 11.6 min

**Q.** For Cc1ccc2nc(C)[nH]c2c1, which LC retention time is on record?
**A.** 8.32 min

**Q.** For CN(C)c1ccc(C=NNC(=O)C(c2ccccc2)c2ccccc2)cc1, which LC retention time is on record?
**A.** 15.4 min

**Q.** With CCC(C)NC(C)CC (stereo unspecified) as the compound, how does the LC retention time read?
**A.** 8.16 min

**Q.** With O=C(NCCN1CCN(Cc2ccccc2)CC1)C(=O)Nc1ccccc1 as the compound, how does the LC retention time read?
**A.** 9.75 min

**Q.** Which LC retention time does the source give for CC1CCCN(CC(O)CN)C1 (stereo unspecified) here?
**A.** 7.32 min

**Q.** Which LC retention time does the source give for CNc1ccccc1 here?
**A.** 7.27 min

**Q.** Which LC retention time does the source give for CN1CCCCC1 here?
**A.** 6.61 min

**Q.** Which LC retention time does the source give for Nc1ccc(OCc2ccccc2)cc1 here?
**A.** 9.84 min

**Q.** Which LC retention time does the source give for CCNCc1ccccc1 here?
**A.** 7.68 min

**Q.** With Nc1ccc2c(c1)CCC2 as the compound, how does the LC retention time read?
**A.** 8.35 min

**Q.** For CCN(CC)CCOC(=O)C(c1ccccc1)C1CCCCC1 (stereo unspecified), which LC retention time is on record?
**A.** 13 min

**Q.** Which LC retention time does the source give for c1ccc(-c2nc3ccccc3o2)cc1 here?
**A.** 15.4 min

**Q.** Which LC retention time does the source give for Cc1ccc(NC(=O)COc2ccc(-c3ccccc3)cc2)cc1 here?
**A.** 17.1 min

**Q.** With CCCC(N)=O as the compound, how does the LC retention time read?
**A.** 4.71 min

**Q.** Which LC retention time does the source give for O=c1[nH]c2ccccc2[nH]c1=O here?
**A.** 6.56 min

**Q.** With CCOC(=O)c1ccc(Nc2c(N)c(=O)oc3ccccc23)cc1 as the compound, how does the LC retention time read?
**A.** 14 min

**Q.** Which LC retention time does the source give for CC(=O)C=CC=C(C)CCC=C(C)C here?
**A.** 17.1 min

**Q.** With c1csc(-c2cnc3ccccc3n2)c1 as the compound, how does the LC retention time read?
**A.** 14.3 min

**Q.** With O=C(C=Cc1ccccc1O)c1ccc(O)cc1O as the compound, how does the LC retention time read?
**A.** 12.2 min

**Q.** With c1ccc(CNCCNc2ccccc2)cc1 as the compound, how does the LC retention time read?
**A.** 9.6 min

**Q.** With c1cn[nH]c1 as the compound, how does the LC retention time read?
**A.** 6.84 min

**Q.** Which LC retention time does the source give for Nc1ccc2c(c1)oc1ccccc12 here?
**A.** 11.6 min

**Q.** For CCCc1ccccc1N, which LC retention time is on record?
**A.** 9.54 min

**Q.** For CCNC(=O)c1ccc(CN2CCc3ccccc3C2)cc1, which LC retention time is on record?
**A.** 8.52 min

**Q.** Which LC retention time does the source give for CC1Cc2ccccc2N1C(=O)CN1CCN(C)CC1 (stereo unspecified) here?
**A.** 8.74 min

**Q.** For CCCCOC(=O)c1ccc(NC(=O)CCCC)cc1, which LC retention time is on record?
**A.** 16.3 min

**Q.** Which LC retention time does the source give for c1cn[nH]n1 here?
**A.** 2.1 min

**Q.** Which LC retention time does the source give for COc1ccc2c3c1OC1C(=O)CCC4C(C2)N(C)CCC314 (stereo unspecified) here?
**A.** 8.61 min

**Q.** For Nc1nc(=Nc2ccccc2)n2c(n1)sc1ccccc12, which LC retention time is on record?
**A.** 10.4 min

**Q.** Which LC retention time does the source give for CC1(C)CC(N2CN(C3CCCCC3)CC2=O)CC(C)(C)N1 here?
**A.** 8.03 min

**Q.** For Cc1ccc2[nH]ccc2c1, which LC retention time is on record?
**A.** 12.8 min

**Q.** For COC(=O)c1cccc(C(=O)OC)n1, which LC retention time is on record?
**A.** 8.45 min

**Q.** For CCCCCCCCN(CCCCCCCC)CCCCCCCC, which LC retention time is on record?
**A.** 19.5 min

**Q.** Which LC retention time does the source give for O=C(CN1CCc2ccccc2C1)NC1CCCC1 here?
**A.** 8.99 min

**Q.** Which LC retention time does the source give for Nc1ccc(N)cc1 here?
**A.** 4.51 min

**Q.** For COc1cccc2c1NCCC2, which LC retention time is on record?
**A.** 8.45 min

**Q.** For Cc1cnc(C)cn1, which LC retention time is on record?
**A.** 7.49 min

**Q.** With Cc1ccc(N2NC(C)(CC(C)C)NC2=S)cc1 (stereo unspecified) as the compound, how does the LC retention time read?
**A.** 15.1 min

**Q.** Which LC retention time does the source give for Cc1cn(COCc2ccccc2)c(=O)[nH]c1=O here?
**A.** 9.82 min

**Q.** With C=CCNC1CCCCC1 as the compound, how does the LC retention time read?
**A.** 7.93 min

**Q.** Which LC retention time does the source give for Cc1ccc2cc(-c3ccncc3)[nH]c2c1 here?
**A.** 10.2 min

**Q.** For CNCCCC12CCC(c3ccccc31)c1ccccc12, which LC retention time is on record?
**A.** 11.7 min

**Q.** With Cc1cccc(CN)c1 as the compound, how does the LC retention time read?
**A.** 7.91 min

**Q.** For CCN(CC)C(=O)c1cc(NC(=O)c2ccc3c(c2)c(=O)n(C)c(=O)n3C)c(OC)c(OC)c1, which LC retention time is on record?
**A.** 11.7 min

**Q.** For CC1CCc2[nH]c3ccccc3c2C1 (stereo unspecified), which LC retention time is on record?
**A.** 16.9 min

**Q.** Which LC retention time does the source give for Cc1ccc(C(C)C)c(OCCN)c1 here?
**A.** 10.2 min

**Q.** Which LC retention time does the source give for Cc1ccc(NC(=O)C(=O)NCCN2CCN(C(=O)c3ccccc3)CC2)cc1 here?
**A.** 9.8 min

**Q.** For CC(N)=C1C(=O)C(=O)N(C)C1c1ccccc1 (stereo unspecified), which LC retention time is on record?
**A.** 8.68 min

**Q.** For COc1cccc(C=NNC(=O)c2ccccc2)c1OC, which LC retention time is on record?
**A.** 11.7 min

**Q.** For O=C1OCc2c1[nH]c(=O)[nH]c2=O, which LC retention time is on record?
**A.** 1.27 min

**Q.** For S=C1N=C2CCCC2C2(CCCC2)N1 (stereo unspecified), which LC retention time is on record?
**A.** 8.95 min

**Q.** With CNC(=O)CC1Nc2ccccc2NC1=O (stereo unspecified) as the compound, how does the LC retention time read?
**A.** 7.34 min

**Q.** With CCN(CC)c1ccc(C(=O)NC(c2ccccc2)c2ccccc2)cc1 as the compound, how does the LC retention time read?
**A.** 15.8 min

**Q.** For CCc1ncc[nH]1, which LC retention time is on record?
**A.** 6.1 min

**Q.** For CN1CCC(=O)C2CCCCC21 (stereo unspecified), which LC retention time is on record?
**A.** 7.15 min

**Q.** For CN(C)CCN(Cc1ccccc1)c1ccccn1, which LC retention time is on record?
**A.** 10.1 min

**Q.** Which LC retention time does the source give for CCCCCCCCN here?
**A.** 10.2 min

**Q.** With CC(C)CNCCN1CCOCC1 as the compound, how does the LC retention time read?
**A.** 7.31 min

**Q.** For Cn1cccc1CC(=O)NN=CC=Cc1ccccc1, which LC retention time is on record?
**A.** 12.7 min

**Q.** Which LC retention time does the source give for Nc1ccncn1 here?
**A.** 3.44 min

**Q.** For C=CCNCC=C, which LC retention time is on record?
**A.** 7.07 min

**Q.** For CCN(CC)CCOC(=O)c1ccc(N)cc1, which LC retention time is on record?
**A.** 8.41 min

**Q.** Which LC retention time does the source give for CNCCOC here?
**A.** 4.63 min

**Q.** With Nc1ncnc2[nH]ncc12 as the compound, how does the LC retention time read?
**A.** 5.98 min

**Q.** For CCN1CC(CCN2CCOCC2)C(c2ccccc2)(c2ccccc2)C1=O (stereo unspecified), which LC retention time is on record?
**A.** 9.72 min

**Q.** With Nc1ccccc1OCCOc1ccccc1N as the compound, how does the LC retention time read?
**A.** 8.96 min

**Q.** With CC(C)c1ccc(OCC(=O)N2CCC(C(N)=O)CC2)cc1 as the compound, how does the LC retention time read?
**A.** 10.8 min

**Q.** With O=C(Cn1ccc(=O)[nH]c1=O)NCCO as the compound, how does the LC retention time read?
**A.** 2.12 min

**Q.** Which LC retention time does the source give for CCCCOC(=O)CCc1n[nH]c(=O)[nH]c1=O here?
**A.** 9.57 min

**Q.** For NCC(O)CO (stereo unspecified), which LC retention time is on record?
**A.** 2.77 min

**Q.** With OCC1Cc2ccccc2CN1 (stereo unspecified) as the compound, how does the LC retention time read?
**A.** 7.39 min

**Q.** For CC1CCC(c2cn(C)c3ccccc23)C(=O)C1 (stereo unspecified), which LC retention time is on record?
**A.** 15.7 min

**Q.** With CCCCCCCCCC(N)=O as the compound, how does the LC retention time read?
**A.** 13.8 min

**Q.** For O=Cc1c(-c2ccccc2)c(C=O)n2ccccc12, which LC retention time is on record?
**A.** 13.9 min

**Q.** For NCCCNCCNCCCN, which LC retention time is on record?
**A.** 7.73 min

**Q.** For CCCCCCCCCC[N+](C)(C)C, which LC retention time is on record?
**A.** 12.3 min

**Q.** Which LC retention time does the source give for O=CNC1CCCCC1 here?
**A.** 8.38 min

**Q.** For Cc1ccc(-n2nc(-c3cn(C)nc3C)cc2-c2cn(C)nc2C)cc1, which LC retention time is on record?
**A.** 12 min

**Q.** For Cc1nn(CC(=O)NCCO)c(=O)c2ccccc12, which LC retention time is on record?
**A.** 7.72 min

**Q.** With Cc1ccccc1C=NNC(=O)C(O)(c1ccccc1)c1ccccc1 as the compound, how does the LC retention time read?
**A.** 14.5 min

**Q.** Which LC retention time does the source give for CN(C)c1ccc(C=NNC(=O)c2cccc(N)c2)cc1 here?
**A.** 9.41 min

**Q.** Which LC retention time does the source give for O=C1CCCN1c1ccccc1 here?
**A.** 10 min

**Q.** Which LC retention time does the source give for CN(C)CCN here?
**A.** 6.51 min

**Q.** For CC(C)(C)c1ccc(C(=O)NCc2ccccc2)o1, which LC retention time is on record?
**A.** 14.8 min

**Q.** For Cc1ccc(Nc2ccccc2)cc1, which LC retention time is on record?
**A.** 16.5 min

**Q.** For NCCc1cccs1, which LC retention time is on record?
**A.** 7.47 min

**Q.** Which LC retention time does the source give for Cc1[nH]c2ccccc2c1CCNC(=O)CN1C(=O)c2ccccc2C1=O here?
**A.** 12.4 min

**Q.** For Cc1cccc(Cc2cnc[nH]2)c1C, which LC retention time is on record?
**A.** 9.65 min

**Q.** Which LC retention time does the source give for CC(C)c1ccccc1NC(=S)NCCN1CCN(C(=S)Nc2ccccc2C(C)C)CC1 here?
**A.** 12.5 min

**Q.** With c1ccn(-c2ccc3cn[nH]c3c2)c1 as the compound, how does the LC retention time read?
**A.** 11.8 min

**Q.** Which LC retention time does the source give for NNC(=O)CCCO here?
**A.** 2.37 min

**Q.** Which LC retention time does the source give for Oc1ccc(-c2cnc3ccccc3n2)cc1 here?
**A.** 11.4 min

**Q.** For COC(=O)c1c(C)[nH]c(-c2ccccc2)c1-c1ccccc1, which LC retention time is on record?
**A.** 15.6 min

**Q.** Which LC retention time does the source give for CC1(C)CC(=O)NC(=O)C1 here?
**A.** 7.12 min

**Q.** With Nc1ccnc2ccccc12 as the compound, how does the LC retention time read?
**A.** 7.32 min

**Q.** For c1ccc(Cn2c3ccccc3c3ccccc32)cc1, which LC retention time is on record?
**A.** 18.8 min

**Q.** With COc1cc(NC(C)=O)cc(OC)c1OC as the compound, how does the LC retention time read?
**A.** 8.42 min

**Q.** For Cc1cc(C)nc(C)c1, which LC retention time is on record?
**A.** 7.46 min

**Q.** For c1ccc(N=c2scc(-c3ccccc3)n2-c2ccccc2)cc1, which LC retention time is on record?
**A.** 12.4 min

**Q.** Which LC retention time does the source give for O=C(NCCCc1ccccc1)c1ccccc1O here?
**A.** 15.3 min
